US20220372013A2, “PIPERIDINE-2,6-DIONE DERIVATIVES AND CROHN'S DISEASE TREATING” (Tianjin Hemay Pharmaceutical Sci-Tech Co., Ltd, priority 2016, published 2022)
Read-outs that look alike come from different tables or passages of the source. Marks after values point to notes of the source that are not given here.

Legend:
[1] = test system: DNBS-Induced Inflammatory Bowel Disease Models in Rats; assay: Biological Example 4: DNBS-induced inflammatory bowel disease models in rats; assay type: in vivo, Wistar rats; conditions: 30 mg/Kg i.g. qd × 7; for Body weight: Mean ± SD; for inhibition in vivo at 30 mg/kg: Rattus norvegicus, po, 168 h
Protocol: (§1) 102 male Wistar rats were fasted for 72 hours. A 5% glucose injection was administered subcutaneously twice during fasting. 88 rats with normal conditions and moderate body weight were selected from the fasting rats. The animals were randomly divided into 11 groups according to the body weight (see Table 11. Grouped Table).
(§2) The animals were anesthetized with ether after 72 hours fasting. A specially made gavage device was slowly inserted into the enteric cavity at 8 cm from the anus. The model control group and each test group were administered with 0.5 mL of 50 mg/mL DNBS in 30% ethanol solution. The normal control group was administered with 0.5 mL of 30% ethanol solution. The animals were inverted in anesthesia for 15 minutes. The day when the model was prepared was day 0 of the experiment. After 4 hours of DNBS induction, the corresponding drug or the corresponding volume of 1% CMC-Na was administered once per day. On day 7 of the experiment, the animals were euthanized to score the colon adhesion degree, measure the length of colon and ulcer area, weigh colon and calculate the colon weight to length ratio.
(§3) One-way ANOVA analysis of the length of colon and colon weight per length of rats was performed by SPSS22. Statistical analyses between groups were performed. The adhesion degree was scored. Mann-Whitney U non-parametric test was performed on ulcer area. Statistical analyses between groups were performed.
(§4) Calculation Formula of Inhibitory rate of weight increase per length: (Colon weight to length ratio in model group−Colon weight to length ratio in administration group)/(Colon weight to length ratio in model group−Colon weight to length ratio in blank group)

[2] = test system: DNBS-Induced Inflammatory Bowel Disease Models in Rats; assay: Biological Example 3: DNBS-induced inflammatory bowel disease models in rats; assay type: in vivo, Wistar rats; conditions: 30 mg/Kg i.g. qd × 7; for Body weight: Mean ± SD
Protocol: as §1, with “40” for “72”, “injection (10 mL/Kg)” for “injection”, “subcutaneously” for “subcutaneously twice”, “72” for “88”, “9” for “11”, “9.” for “11.”
as §2, with “40” for “72”
as §3, §4

## COCCN1C(=O)CCC(N2C(=O)c3cccc(N)c3C2=O)C1=O (stereo not shown) [Example 27, 4-amino-2-(1-(2-methoxyethyl)-2,6-dioxopiperidin-3-yl)isoindolin-1,3-dione]
[1]; day 7
  Colon weight to length ratio: 106 ± 14 mg/cm
  Ulcer area of colon: 0.4 ± 0.6 cm^2
[1]; Day 1
  Body weight: 125.5 ± 8.4 g
[1]; Day 2
  Body weight: 124.4 ± 8.1 g
[1]; Day 3
  Body weight: 125.8 ± 8.2 g
[1]; Day 4
  Body weight: 133.1 ± 9.2 g
[1]; Day 5
  Body weight: 141.6 ± 12.0 g
[1]; Day 6
  Body weight: 146.7 ± 11.8 g
[1]; Day 7
  Body weight: 156.3 ± 11.0 g
[1]; day 7, read-out: Inhibitory rate of ulcer area of colon
  inhibition in vivo at 30 mg/kg: 83.3%
[1]; day 7, read-out: Inhibitory rate of weight increase per length
  inhibition in vivo at 30 mg/kg: 65.9%
[2]; day 7
  Adhesion Degree of Colon: 0.9 ± 0.4 point
  Colon weight to length ratio: 109 ± 12 mg/cm
  Inhibitory rate of colon adhesion: 47.1# %
  Inhibitory rate of ulcer area of colon: 99.7## %
  Inhibitory rate of weight increase per length: 58.2## %
  Ulcer area of colon: 0.01 ± 0.02## cm^2
[2]; Day 0
  Body weight: 135.4 ± 4.9 g
[2]; Day 1
  Body weight: 135.2 ± 4.2 g
[2]; Day 2
  Body weight: 136.7 ± 5.0 g
[2]; Day 3
  Body weight: 141.7 ± 7.5 g
[2]; Day 4
  Body weight: 150.1 ± 9.2 g
[2]; Day 5
  Body weight: 159.1 ± 10.3 g
[2]; Day 6
  Body weight: 165.2 ± 10.0 g
[2]; Day 7
  Body weight: 175.8 ± 8.2 g
